Experimental data taken from patent US20180008587A1, “THIOHYDANTOIN ANDROGEN RECEPTOR ANTAGONISTS FOR THE TREATMENT OF CANCER” (Jaressen Pharmaceutica NV, priority 2016, published 2018).

How the values were obtained:
[1] = molecular target: T1, F876L-VP16 (Homo sapiens, UniProt P10275, F877L); assay: AR-VP16 DNA binding assay, HepG2; assay type: cell-based; details: HepG2, antagonist mode, 1 nM R1881, 48 hours
T1 construct: VP16 (fusion partner); expressed in transfected cells; host or cells: HepG2
T1 sequence (P10275 1-920 F877L): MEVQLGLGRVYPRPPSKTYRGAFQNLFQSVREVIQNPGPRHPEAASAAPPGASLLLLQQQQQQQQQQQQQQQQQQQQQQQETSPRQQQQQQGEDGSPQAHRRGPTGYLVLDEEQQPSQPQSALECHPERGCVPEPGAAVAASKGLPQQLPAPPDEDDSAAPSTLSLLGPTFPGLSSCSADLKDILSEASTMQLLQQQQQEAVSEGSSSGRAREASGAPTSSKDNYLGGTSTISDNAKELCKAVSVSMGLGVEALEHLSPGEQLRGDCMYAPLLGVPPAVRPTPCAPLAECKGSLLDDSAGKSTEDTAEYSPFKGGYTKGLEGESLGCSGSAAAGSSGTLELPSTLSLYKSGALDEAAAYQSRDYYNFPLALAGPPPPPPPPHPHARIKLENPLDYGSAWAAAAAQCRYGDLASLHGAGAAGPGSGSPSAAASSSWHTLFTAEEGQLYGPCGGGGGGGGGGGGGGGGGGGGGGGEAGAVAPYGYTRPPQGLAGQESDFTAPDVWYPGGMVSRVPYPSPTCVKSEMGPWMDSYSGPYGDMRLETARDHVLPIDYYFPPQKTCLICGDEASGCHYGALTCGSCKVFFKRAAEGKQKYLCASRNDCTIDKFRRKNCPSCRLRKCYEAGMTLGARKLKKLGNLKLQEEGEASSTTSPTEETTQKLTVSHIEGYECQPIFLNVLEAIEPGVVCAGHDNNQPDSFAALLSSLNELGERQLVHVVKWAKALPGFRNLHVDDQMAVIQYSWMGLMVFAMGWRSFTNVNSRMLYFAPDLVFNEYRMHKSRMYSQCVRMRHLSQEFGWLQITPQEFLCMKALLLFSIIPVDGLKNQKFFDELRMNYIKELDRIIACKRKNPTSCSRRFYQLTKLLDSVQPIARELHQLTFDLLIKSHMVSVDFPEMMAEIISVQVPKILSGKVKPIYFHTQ
Procedure: (§1) HepG2 cells were maintained in EMEM supplemented with 10% FBS. One day before transfection, the media was changed to EMEM with 10% CSS. […] Cells were then trypsinized, counted and resuspended at 500,000 cells/mL. For agonist mode, the compounds were serially diluted and 50 μL of the compound was added per well. 50 μL of the cells were added to each well and incubated for 48 hours. For antagonist mode, a final concentration of 90 pM (VP16 AR) or 1 nM (VP16 F876L) R1881 was added to the plate and incubated for 48 hours. The plates were then assayed using SteadyGlo and read on the Envision. Percent Stimulation and Inhibition were determined and analyzed using GraphPad Prism.

[2] = molecular target: T2, AR-VP16 (Homo sapiens, UniProt P10275); assay: AR-VP16 DNA binding assay, HepG2; assay type: cell-based; details: HepG2, antagonist mode, 90 pM R1881, 48 hours; read-out: IC50 VP16 WT
T2 sequence (P10275 560-920 limits assumed): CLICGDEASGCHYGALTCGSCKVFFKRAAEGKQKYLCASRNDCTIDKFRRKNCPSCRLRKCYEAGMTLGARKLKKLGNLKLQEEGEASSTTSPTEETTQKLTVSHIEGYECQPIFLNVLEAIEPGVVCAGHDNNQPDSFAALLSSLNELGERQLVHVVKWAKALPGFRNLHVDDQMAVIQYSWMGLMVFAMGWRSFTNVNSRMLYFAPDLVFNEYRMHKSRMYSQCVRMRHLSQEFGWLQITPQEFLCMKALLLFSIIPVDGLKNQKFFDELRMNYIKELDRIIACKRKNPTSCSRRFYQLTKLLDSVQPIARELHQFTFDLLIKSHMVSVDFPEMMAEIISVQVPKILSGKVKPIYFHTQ
Procedure: as §1

[3] = system: LNCaP SRα F876L tumors; assay: Castrate resistant prostate cancer xenograft study; assay type: in vivo, mouse; details: castrate SHO mice
Procedure: Castrate six to seven week old male SCID Hairless Outbred mice (SHO, Charles Rivers Laboratories) were used as the host strain for xenograft studies. LNCaP SRα F876L tumors were established in host mice and the anti-tumor activity of compounds defined herein was determined. Dosing was initiated when tumors reached 100 to 200 mm^3 and animals were randomized to each of test groups (vehicle (HP-β-CD), 10 mg/kg, 30 mg/kg or 50 mg/kg compound). Compound was dosed orally, QD, for 28 days and tumor size was measured twice weekly along with body weight measurement. At the end of study, the TGI was calculated using initial tumor volume and final tumor volume measurements. TGI: 100−(Treated/Control*100). At the termination of study tumors were collected and stored for further analyses.

IC50 [1] [nM]	IC50 [2] [nM]	SMILES	TGI (%) ([3]; 30 mg/kg orally QD 28 days)	TGI (%) ([3]; 10 mg/kg orally QD 28 days)
2740	3390	N#Cc1ncc(N2C(=O)C3(CCC3)N(c3ccc(OC4CCNCC4)cc3)C2=S)cc1C(F)(F)F [Cpd 35, 5-[5-oxo-8-[4-(4-piperidyloxy)phenyl]-7-thioxo-6,8-diazaspiro[3.4]octan-6-yl]-3-(trifluoromethyl)pyridine-2-carbonitrile]	53	
994	24	N#Cc1ncc(N2C(=O)C3(CCC3)N(c3ccc(C(=O)NCCCO)c(F)c3)C2=S)cc1C(F)(F)F [Cpd 40, 4-[6-[6-cyano-5-(trifluoromethyl)-3-pyridyl]-5-oxo-7-thioxo-6,8-diazaspiro[3.4]octan-8-yl]-2-fluoro-N-(3-hydroxypropyl)benzamide]		
		CN1CCC(Oc2ccc(N3C(=S)N(c4cnc(C#N)c(C(F)(F)F)c4)C(=O)C34CCC4)cc2)CC1 [Cpd 85, 5-[8-[4-[(1-methyl-4-piperidyl)oxy]phenyl]-5-oxo-7-thioxo-6,8-diazaspiro[3.4]octan-6-yl]-3-(trifluoromethyl)pyridine-2-carbonitrile]	100.8	80.2
